# Assay results as given in patent publication US8822517B2, “Arylosulfonamides for the treatment of CNS diseases” (Adamed SP. Z O.O., priority 2010, dated 2014).
# Assays:
# dopaminergic D3 receptor [1] = target: T1, dopaminergic D3 receptor (Homo sapiens, UniProt P35462); assay: Binding assay D3 (h), [3H]methyl-spiperone, CHO cells; design: expressed in transfected cells; host or cells: CHO cells; settings: read-out: D3 [%]
# Summary of the method: (§1)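 Specific ligand binding was taken as total minus non-specific binding, with the latter defined in the presence of surplus unlabelled ligand. Each compound was tested at a single 1×10^−6 M concentration.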
# [2] = target: T2, serotoninergic 5-HT1A receptor (Homo sapiens, UniProt P08908); assay: Binding assay 5-HT1A (h), [3H]8-OH-DPAT, HEK-293 cells; design: expressed in transfected cells; host or cells: HEK-293 cells; settings: read-out: 5-HT1A
# T2 sequence (P08908 1-422): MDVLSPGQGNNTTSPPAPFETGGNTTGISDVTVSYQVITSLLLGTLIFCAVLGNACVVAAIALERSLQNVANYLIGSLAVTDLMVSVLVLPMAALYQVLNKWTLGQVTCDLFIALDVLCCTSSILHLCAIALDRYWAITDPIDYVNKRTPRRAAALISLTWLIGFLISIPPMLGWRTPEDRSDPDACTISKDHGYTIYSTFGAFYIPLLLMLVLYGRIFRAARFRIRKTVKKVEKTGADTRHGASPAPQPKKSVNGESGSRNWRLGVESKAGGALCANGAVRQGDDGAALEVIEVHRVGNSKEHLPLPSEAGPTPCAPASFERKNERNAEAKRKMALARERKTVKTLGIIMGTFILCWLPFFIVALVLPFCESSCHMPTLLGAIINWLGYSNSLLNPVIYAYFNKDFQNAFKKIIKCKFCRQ
# Summary of the method: as §1
# [3] = target: histaminergic H1 receptor (Homo sapiens, UniProt P35367); assay: Binding assay H1 (h), [3H]pyrilamine, HEK-293 cells; design: expressed in transfected cells; host or cells: HEK-293 cells; settings: read-out: H1 [%]
# histaminergic H1 receptor, sequence (P35367 whole entry): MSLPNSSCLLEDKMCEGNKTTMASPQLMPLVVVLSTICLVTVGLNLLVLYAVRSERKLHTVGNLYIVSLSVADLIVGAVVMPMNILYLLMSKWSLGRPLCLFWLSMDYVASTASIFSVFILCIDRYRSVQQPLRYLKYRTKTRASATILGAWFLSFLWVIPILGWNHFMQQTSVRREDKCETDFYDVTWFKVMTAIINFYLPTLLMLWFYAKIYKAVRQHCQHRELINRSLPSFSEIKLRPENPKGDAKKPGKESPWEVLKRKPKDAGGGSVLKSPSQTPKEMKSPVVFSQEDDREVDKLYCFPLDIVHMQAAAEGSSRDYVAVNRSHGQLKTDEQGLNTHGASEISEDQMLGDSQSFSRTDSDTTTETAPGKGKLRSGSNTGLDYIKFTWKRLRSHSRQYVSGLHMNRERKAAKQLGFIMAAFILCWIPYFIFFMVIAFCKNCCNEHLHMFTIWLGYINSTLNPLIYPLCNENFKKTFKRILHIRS
# Summary of the method: as §1
# [4] = target: T3, serotonine transporter (SERT) receptor (Homo sapiens, UniProt P31645); assay: Binding assay SERT (h), [3H]imipramine, CHO cells; settings: read-out: SERT [%]
# T3 construct: expressed in transfected cells; host or cells: CHO cells
# T3 sequence (P31645 whole entry): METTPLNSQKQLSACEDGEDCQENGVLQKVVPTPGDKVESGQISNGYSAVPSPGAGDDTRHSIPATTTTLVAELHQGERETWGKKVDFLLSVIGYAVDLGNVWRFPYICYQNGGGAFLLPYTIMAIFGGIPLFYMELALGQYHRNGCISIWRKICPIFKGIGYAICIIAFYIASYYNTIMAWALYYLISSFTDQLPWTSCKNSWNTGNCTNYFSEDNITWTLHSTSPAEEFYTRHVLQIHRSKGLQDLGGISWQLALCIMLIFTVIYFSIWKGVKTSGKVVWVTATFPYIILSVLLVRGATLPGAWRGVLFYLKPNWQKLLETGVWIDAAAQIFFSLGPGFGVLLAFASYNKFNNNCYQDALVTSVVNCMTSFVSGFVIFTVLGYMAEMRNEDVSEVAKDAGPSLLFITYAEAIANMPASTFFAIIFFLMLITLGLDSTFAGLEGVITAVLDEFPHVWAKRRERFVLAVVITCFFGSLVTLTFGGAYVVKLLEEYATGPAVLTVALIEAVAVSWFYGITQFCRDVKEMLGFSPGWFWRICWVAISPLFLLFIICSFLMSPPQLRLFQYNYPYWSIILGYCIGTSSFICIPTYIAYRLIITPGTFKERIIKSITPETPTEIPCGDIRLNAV
# Summary of the method: as §1
# dopaminergic D2 receptor = dopaminergic D2 receptor (Homo sapiens, UniProt P14416); assay: Cellular functional assay, dopaminergic D2 receptor (agonism/antagonism); format: cell-based; settings: HEK293; for activation at 1 µM: agonist effect, percent of control specific agonist response (3 μM dopamine for control), 1×10^−6 M, D2S (h), HEK-293 cells, read-out: D2-ag [%]; for inhibition at 1 µM: read-out: D2-antag. [%]
# dopaminergic D2 receptor, sequence (P14416 whole entry): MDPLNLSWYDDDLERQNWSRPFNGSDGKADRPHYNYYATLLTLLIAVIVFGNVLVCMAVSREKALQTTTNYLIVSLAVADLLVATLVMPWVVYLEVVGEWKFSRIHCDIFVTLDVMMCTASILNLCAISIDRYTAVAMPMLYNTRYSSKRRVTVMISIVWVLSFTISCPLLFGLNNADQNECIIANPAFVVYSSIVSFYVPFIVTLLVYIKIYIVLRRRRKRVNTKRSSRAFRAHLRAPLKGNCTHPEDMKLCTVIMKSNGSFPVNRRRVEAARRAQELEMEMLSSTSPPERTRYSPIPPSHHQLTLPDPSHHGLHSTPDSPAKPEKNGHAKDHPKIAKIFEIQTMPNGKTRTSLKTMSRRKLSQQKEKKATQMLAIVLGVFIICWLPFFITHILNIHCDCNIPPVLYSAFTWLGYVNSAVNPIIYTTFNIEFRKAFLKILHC
# Method: (§2) The compounds were tested at the concentration of 1×10^−6M.
# (§3) In the Tables ag refers to agonism, and antag to antagonism).
# adrenergic α1A receptor = target: T4, adrenergic α1A receptor (Homo sapiens, UniProt P35348); assay: Cellular functional assay, adrenergic α1A receptor (agonism/antagonism); format: cell-based; settings: for activation at 1 µM: agonist effect, percent of control specific agonist response, compounds tested at 1×10^−6M, read-out: α1A -ag [%]; for inhibition at 1 µM: read-out: α1A -antag. [%]
# T4 sequence (P35348 1-466): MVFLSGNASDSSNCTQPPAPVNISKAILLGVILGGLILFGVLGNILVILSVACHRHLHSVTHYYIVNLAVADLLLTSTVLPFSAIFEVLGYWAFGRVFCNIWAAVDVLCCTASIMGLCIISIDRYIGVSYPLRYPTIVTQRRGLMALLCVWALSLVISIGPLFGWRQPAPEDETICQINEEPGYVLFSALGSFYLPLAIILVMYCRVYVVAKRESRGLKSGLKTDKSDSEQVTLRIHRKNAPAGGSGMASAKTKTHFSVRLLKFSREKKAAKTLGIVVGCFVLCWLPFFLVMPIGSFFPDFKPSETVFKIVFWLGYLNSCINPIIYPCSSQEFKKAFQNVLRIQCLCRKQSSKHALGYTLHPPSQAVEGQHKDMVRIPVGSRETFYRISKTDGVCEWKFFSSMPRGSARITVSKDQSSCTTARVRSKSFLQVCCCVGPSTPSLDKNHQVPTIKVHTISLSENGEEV
# Method: […]. The compounds were tested at the concentration of 1×10^−6M.
# Conditions and methodology (by reference to the literature) of cellular functional assays are given in Table 13 and the tests results for representative compounds are given in Table 14 (dopaminergic receptor D2), in Table 15 (dopaminergic receptor D3), in Table 16 (serotoninergic receptor 5-HT1A), in Table 17 (serotoninergic receptor 5-HT2A), in Table 18 (serotoninergic receptor 5-HT6), in Table 19 (serotoninergic receptor 5-HT7), in Table 20 (adrenergic α1 receptor), in Table 21 (adrenergic α2C receptor), in Table 22 (histaminergic H1 receptor) and in Table 23 (serotoninergic 5-HT2C receptor). In the Tables ag refers to agonism, and antag to antagonism).
# adrenergic α2C receptor = target: T5, adrenergic α2C receptor (Homo sapiens, UniProt P18825); assay: Cellular functional assay, adrenergic α2C receptor (agonism/antagonism); format: cell-based; settings: for activation at 1 µM: agonist effect, percent of control specific agonist response, compounds tested at 1×10^−6M, read-out: α2C −ag [%]; for inhibition at 1 µM: read-out: α2C −antag. [%]
# T5 sequence (P18825 1-462): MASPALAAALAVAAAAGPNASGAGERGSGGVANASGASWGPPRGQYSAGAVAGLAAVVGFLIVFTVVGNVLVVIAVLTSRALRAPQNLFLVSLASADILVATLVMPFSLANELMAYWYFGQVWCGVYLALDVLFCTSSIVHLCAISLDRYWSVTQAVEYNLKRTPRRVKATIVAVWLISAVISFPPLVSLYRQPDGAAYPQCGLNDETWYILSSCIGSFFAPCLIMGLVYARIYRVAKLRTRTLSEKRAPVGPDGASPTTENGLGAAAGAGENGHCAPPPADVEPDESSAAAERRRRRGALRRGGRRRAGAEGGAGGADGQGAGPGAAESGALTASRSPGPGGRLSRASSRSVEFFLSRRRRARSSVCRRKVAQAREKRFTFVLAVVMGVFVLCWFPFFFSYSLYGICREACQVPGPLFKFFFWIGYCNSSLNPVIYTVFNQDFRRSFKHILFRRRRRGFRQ
# Method: as §2, §3
# dopaminergic D3 receptor [5] = target: T1, dopaminergic D3 receptor; assay: Cellular functional assay, dopaminergic D3 receptor (agonism/antagonism); format: cell-based; settings: for inhibition at 1 µM: CHO, read-out: D3-antag. [%]; for activation at 1 µM: agonist effect, percent of control specific agonist response (300 nM dopamine for control), 1×10^−6 M, D3 (h), CHO cells, read-out: D3-ag [%]
# Method: as §2, §3
# T1 sequence (P35462 whole entry): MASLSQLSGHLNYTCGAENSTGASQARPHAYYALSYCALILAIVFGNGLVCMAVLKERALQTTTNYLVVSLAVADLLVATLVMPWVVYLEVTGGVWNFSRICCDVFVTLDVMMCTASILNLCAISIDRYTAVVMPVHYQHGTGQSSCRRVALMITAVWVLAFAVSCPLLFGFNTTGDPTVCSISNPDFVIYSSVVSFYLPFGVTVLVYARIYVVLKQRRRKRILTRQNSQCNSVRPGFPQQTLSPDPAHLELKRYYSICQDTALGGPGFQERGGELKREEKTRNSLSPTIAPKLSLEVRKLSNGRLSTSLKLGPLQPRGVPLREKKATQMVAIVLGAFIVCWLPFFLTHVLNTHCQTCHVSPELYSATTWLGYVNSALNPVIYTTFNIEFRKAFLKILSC
Structure (SMILES),inhibition at 1 µM (dopaminergic D3 receptor [1]) [%],inhibition at 1 µM [2] [%],inhibition at 1 µM [3] [%],inhibition at 1 µM [4] [%],activation at 1 µM (dopaminergic D2 receptor) [%],inhibition at 1 µM (dopaminergic D2 receptor) [%],activation at 1 µM (adrenergic α1A receptor) [%],inhibition at 1 µM (adrenergic α1A receptor) [%],activation at 1 µM (adrenergic α2C receptor) [%],inhibition at 1 µM (adrenergic α2C receptor) [%],inhibition at 1 µM (dopaminergic D3 receptor [5]) [%],activation at 1 µM (dopaminergic D3 receptor [5]) [%]
"Cc1cccc(S(=O)(=O)NCCCCN2CCN(c3nsc4ccccc34)CC2)c1 [Compound 3, N-(4-(4-(1,2-Benzothiazol-3-yl)piperazin-1-yl)butyl)-3-methylbenzenesulphonamide]",98,98,94,57,,,,,,,,
"O=S(=O)(NCCCCN1CCN(c2noc3ccccc23)CC1)c1cccc2ccccc12 [Compound 13, N-(4-(4-(1,2-Benzoxazol-3-yl)piperazin-1-yl)butyl)naphthalene-1-sulphonamide]",92,89,84,7,2,95,0,100,-7,18,,
"O=S(=O)(NCCCCN1CCN(c2noc3ccccc23)CC1)c1ccc2ccccc2c1 [Compound 14, N-(4-(4-(1,2-Benzoxazol-3-yl)piperazin-1-yl)butyl)naphthalene-2-sulphonamide]",97,88,88,3,4,98,0,100,-3,12,92,-15
"O=c1[nH]c2ccc(S(=O)(=O)NCCCCN3CCN(c4noc5ccccc45)CC3)cc2o1 [Compound 16, N-(4-(4-(1,2-Benzoxazol-3-yl)piperazin-1-yl)butyl)-2-oxo-3H-1,3-benzoxazole-6-sulphonamide]",99,93,97,-3,4,98,0,100,-7,9,,
"O=S(=O)(NCCCCN1CCC(c2noc3cc(F)ccc23)CC1)c1ccc2ccccc2c1 [Compound 18, N-[4-[4-(6-Fluoro-1,2-benzoxazol-3-yl)piperidin-1-yl]butyl]naphthalene-2-sulphonamide]",98,81,79,39,-1,98,0,99,-10,28,114,-27
"O=S(=O)(NCCCCN1CCN(c2cccc3[nH]ccc23)CC1)c1ccccc1 [Compound 27, N-{4-[4-(1H-Indol-4-yl)piperazin-1-yl]butyl}benzenesulphonamide]",96,99,27,-3,40,100,1,100,3,31,,
"O=S(=O)(NCCCCN1CCN(c2cccc3[nH]ccc23)CC1)c1cccc(F)c1 [Compound 28, 3-Fluoro-N-{4-[4-(1H-indol-4-yl)piperazin-1-yl]butyl}benzenesulphonamide]",99,100,57,53,49,105,,,4,27,-2,59
"O=S(=O)(NCCCCN1CCN(c2noc3ccccc23)CC1)c1c[nH]c2ncccc12 [Compound 89, N-[4-[4-(1,2-Benzoxazol-3-yl)piperazin-1-yl]butyl]-1H-pyrrolo[2,3-b]pyridine-3-sulphonamide]",95,71,85,2,,,-1,100,-10,7,69,-18
"O=S(=O)(NCCCCN1CCN(c2cccc3[nH]ccc23)CC1)c1ccc2cc(Cl)ccc2c1 [Compound 358, 6-Chloro-N-[4-[4-(1H-indol-4-yl)piperazin-1-yl]butyl]naphthalene-2-sulphonamide]",99,100,74,40,30,84,,,28,48,35,47
"O=c1[nH]c2cccc(N3CCN(CCCNS(=O)(=O)c4cccc5ccccc45)CC3)c2[nH]1 [Compound 423, N-[3-[4-(2-oxo-1,3-dihydrobenzimidazol-4-yl)piperazin-1-yl]propyl]naphthalene-1-sulphonamide]",98,99,16,25,41,96,16,70,,,22,70
"O=c1[nH]c2cccc(N3CCN(CCCNS(=O)(=O)c4ccc5ccccc5c4)CC3)c2[nH]1 [Compound 424, N-[3-[4-(2-oxo-1,3-dihydrobenzimidazol-4-yl)piperazin-1-yl]propyl]naphthalene-2-sulphonamide]",98,99,28,-3,44,97,39,76,,,18,70
